Measurements as given in PMC6001238, “Iterative Chemical Engineering of Vancomycin Leads to Novel Vancomycin Analogs With a High in Vitro Therapeutic Index” (Frontiers in Microbiology, 2018).
≈ marks a conversion by molar mass, not a printed value. Read-outs that look alike come from different tables or passages of the source.

Legend:
E. faecalis VSE 1 = assay: MIC, broth microdilution, vancomycin-sensitive E. faecalis (VSE 1); format: cell-based, Enterococcus faecalis
In short: (§1)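 Broth microdilution per CLSI; controls = ultrapure water, non-inoculated broth. One set: + vancomycin 10 μM final alongside test analogue/control drug.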

E. faecalis VRE 6 = assay: MIC, broth microdilution, vancomycin-resistant E. faecalis VRE 6 (VanA); format: cell-based, Enterococcus faecalis
In short: as §1

E. faecalis VRE 53 = assay: MIC, broth microdilution, vancomycin-resistant E. faecalis VRE 53 (VanA); format: cell-based, Enterococcus faecalis
In short: as §1

E. faecalis VRE 29 = assay: MIC, broth microdilution, vancomycin-resistant E. faecalis VRE 29 (VanA); format: cell-based, Enterococcus faecalis
In short: as §1

E. faecalis VRE 37 = assay: MIC, broth microdilution, vancomycin-resistant E. faecalis VRE 37 (VanA); format: cell-based, Enterococcus faecalis
In short: as §1

[1] = test system: Murine leukemia (L1210) cells; assay: Cytostatic activity, L1210 cell proliferation; format: cell-based; settings: mean ± SD of three experiments; highest concentration tested 250 µM; 2 days; read-out: Toxicity (IC50) L1210
In short: (§2)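 Suspensions (300,000–500,000 cells/mL) combined with equal volumes of diluted compound; 37°C; L1210 2 d / CEM 3 d / HeLa 4 d; counted by Coulter counter; IC50 vs untreated wells.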

[2] = test system: human T-lymphocyte (CEM) cells; assay: Cytostatic activity, CEM cell proliferation; format: cell-based; settings: mean ± SD of three experiments; highest concentration tested 250 µM; 3 days; read-out: Toxicity (IC50) CEM
In short: as §2

[3] = test system: human cervix carcinoma (HeLa) cells; assay: Cytostatic activity, HeLa cell proliferation; format: cell-based; settings: mean ± SD of three experiments; highest concentration tested 250 µM; 4 days; read-out: Toxicity (IC50) HeLa
In short: as §2

[4] = test system: L1210, CEM and HeLa cell lines; assay: Cytostatic activity, average or summary over L1210, CEM and HeLa; format: cell-based
In short: as §2

[5] = test system: S. aureus VSSA (ATCC 6538); assay: MIC, broth microdilution, vancomycin-sensitive S. aureus (VSSA/MSSA, ATCC 6538); format: cell-based, Staphylococcus aureus
In short: as §1

S. aureus VISA/HIP5827 = assay: MIC, broth microdilution, vancomycin-intermediate S. aureus VISA HIP5827; format: cell-based, Staphylococcus aureus
In short: as §1

S. aureus VRSA = assay: MIC, broth microdilution, vancomycin-resistant S. aureus (VRSA); format: cell-based, Staphylococcus aureus
In short: as §1

MRSA KS2 = assay: MIC, broth microdilution, MRSA KS2; format: cell-based, Staphylococcus aureus
In short: as §1

MRSA KS6 = assay: MIC, broth microdilution, MRSA KS6; format: cell-based, Staphylococcus aureus
In short: as §1

MRSA KS89 = assay: MIC, broth microdilution, MRSA KS89; format: cell-based, Staphylococcus aureus
In short: as §1

MRSA KS1 = assay: MIC, broth microdilution, MRSA KS1; format: cell-based, Staphylococcus aureus
In short: as §1

33 clinical VRE isolates = assay: MIC against a set of 33 clinical VRE isolates (range, MIC50, TI); format: cell-based, Enterococcus faecalis
In short: as §1

[6] = test system: 24 clinical MRSA isolates; assay: MIC against a set of 24 clinical MRSA isolates (range, MIC50, TI); format: cell-based, Staphylococcus aureus
In short: as §1

[7] = test system: Clostridium difficile ATJ ribotype 014/20; assay: MIC, plate drop assay, C. difficile ATJ ribotype 014/20; format: cell-based; settings: for MIC-fold improvement vs. vancomycin: C. difficile ATJ ribotype 014/20
In short: (§3)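 Twofold dilution series of test compounds were spotted onto C. difficile lawns in 0.4% BHI agar containing added calcium and magnesium salts. After overnight anaerobic incubation at 37°C, growth inhibition was scored by spot clearing; triplicate runs, ultrapure water negative control.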

[8] = test system: Clostridium difficile AIU ribotype 027; assay: MIC, plate drop assay, C. difficile AIU ribotype 027; format: cell-based; settings: for MIC-fold improvement vs. vancomycin: C. difficile AIU ribotype 027
In short: as §3

VE 148 (VanB) = assay: MIC, VanB-type VRE strain VE 148; format: cell-based, Enterococcus; settings: VE 148, VanB; read-out: MIC
In short: as §1

VE 149 (VanB) = assay: MIC, VanB-type VRE strain VE 149; format: cell-based, Enterococcus; settings: VE 149, VanB; read-out: MIC
In short: as §1

VE 150 (VanB) = assay: MIC, VanB-type VRE strain VE 150; format: cell-based, Enterococcus; settings: VE 150, VanB; read-out: MIC
In short: as §1

VE 152 (VanB) = assay: MIC, VanB-type VRE strain VE 152; format: cell-based, Enterococcus; settings: VE 152, VanB; read-out: MIC
In short: as §1

VE 157 (VanB) = assay: MIC, VanB-type VRE strain VE 157; format: cell-based, Enterococcus; settings: VE 157, VanB; read-out: MIC
In short: as §1

VE 82 (VanC1) = assay: MIC, VanC1-type VRE strain VE 82; format: cell-based, Enterococcus gallinarum; settings: VE 82, VanC1; read-out: MIC
In short: as §1

MRSA = assay: Minimum bactericidal concentration against MRSA; format: cell-based, Staphylococcus aureus
Method: Plates were incubated overnight at 37°C and colony growth was inspected.

CNC(CC(C)C)C(=O)NC1C(=O)NC(CC(N)=O)C(=O)NC2C(=O)NC3C(=O)NC(C(=O)NC(C(=O)NCCCNC(=O)c4ccc5cc(NS(=O)(=O)c6ccc(C(C)C)cc6)ccc5c4)c4cc(O)cc(O)c4-c4cc3ccc4O)C(O)c3ccc(c(Cl)c3)Oc3cc2cc(c3OC2OC(CO)C(O)C(O)C2OC2CC(C)(N)C(O)C(C)O2)Oc2ccc(cc2Cl)C1O (stereo not drawn) [Vanc-66]
MIC (E. faecalis VSE 1; Enterococcus faecalis VSE 1 (vancomycin-sensitive), read-out: MIC): 0.39 µM (≈ 0.724 µg/mL)
MIC-fold improvement vs. vancomycin (E. faecalis VSE 1; VSE 1, ratio of MIC of vancomycin and MIC of analogue): 4
MIC (E. faecalis VRE 6; Enterococcus faecalis VRE 6 (vancomycin-resistant), read-out: MIC): 1.56 µM (≈ 2.9 µg/mL)
MIC-fold improvement vs. vancomycin (E. faecalis VRE 6; VRE 6, ratio of MIC of vancomycin and MIC of analogue): 128
MIC (E. faecalis VRE 53; Enterococcus faecalis VRE 53 (vancomycin-resistant), read-out: MIC): 25 µM (≈ 46.4 µg/mL)
MIC-fold improvement vs. vancomycin (E. faecalis VRE 53; VRE 53, ratio of MIC of vancomycin and MIC of analogue): 16
MIC (E. faecalis VRE 29; Enterococcus faecalis VRE 29 (vancomycin-resistant), read-out: MIC): 3.13 µM (≈ 5.81 µg/mL)
MIC-fold improvement vs. vancomycin (E. faecalis VRE 29; VRE 29, ratio of MIC of vancomycin and MIC of analogue): 128
MIC (E. faecalis VRE 37; Enterococcus faecalis VRE 37 (vancomycin-resistant), read-out: MIC): 3.13 µM (≈ 5.81 µg/mL)
MIC-fold improvement vs. vancomycin (E. faecalis VRE 37; VRE 37, ratio of MIC of vancomycin and MIC of analogue): 128
IC50 [1]: > 250 µM
IC50 [2]: 243 ± 10 µM
IC50 [3]: 78 ± 49 µM
IC50 ([4]; average IC50 used for TI in Table S5, >250 entered as 250, read-out: IC50): 190 µM
IC50 ([4]; average of L1210, CEM and HeLa, read-out: Toxicity (IC50) Average): 190 µM
MIC ([5]; Staphylococcus aureus VSSA, read-out: MIC): 0.78 µM (≈ 1.45 µg/mL)
MIC-fold improvement vs. vancomycin ([5]; VSSA, ratio of MIC of vancomycin and MIC of analogue): 1
MIC (S. aureus VISA/HIP5827; Staphylococcus aureus VISA/HIP5827, read-out: MIC): 0.78 µM (≈ 1.45 µg/mL)
MIC-fold improvement vs. vancomycin (S. aureus VISA/HIP5827; VISA/HIP5827, ratio of MIC of vancomycin and MIC of analogue): 8
MIC (S. aureus VRSA; Staphylococcus aureus VRSA, read-out: MIC): 0.39 µM (≈ 0.724 µg/mL)
MIC-fold improvement vs. vancomycin (S. aureus VRSA; VRSA, ratio of MIC of vancomycin and MIC of analogue): 256
MIC-fold improvement vs. vancomycin (MRSA KS2; MRSA KS2, ratio of MIC of vancomycin and MIC of analogue): 2
MIC (MRSA KS2; Staphylococcus aureus MRSA KS2, read-out: MIC): 0.39 µM (≈ 0.724 µg/mL)
MIC-fold improvement vs. vancomycin (MRSA KS6; MRSA KS6, ratio of MIC of vancomycin and MIC of analogue): 4
MIC (MRSA KS6; Staphylococcus aureus MRSA KS6, read-out: MIC): 0.20 µM (≈ 0.371 µg/mL)
MIC-fold improvement vs. vancomycin (MRSA KS89; MRSA KS8, ratio of MIC of vancomycin and MIC of analogue): 2
MIC (MRSA KS89; Staphylococcus aureus MRSA KS8, read-out: MIC): 0.39 µM (≈ 0.724 µg/mL)
MIC-fold improvement vs. vancomycin (MRSA KS1; MRSA KS1, ratio of MIC of vancomycin and MIC of analogue): 1
MIC (MRSA KS1; Staphylococcus aureus MRSA KS1, read-out: MIC): 0.78 µM (≈ 1.45 µg/mL)
MIC Range (33 clinical VRE isolates; 33 clinical VRE isolates): 1.56 to 12.5 µM
TI (IC50/MIC50) (33 clinical VRE isolates; in vitro therapeutic index, VRE): 61
MIC50 (33 clinical VRE isolates; median MIC, 33 clinical VRE isolates, read-out: MIC50): 3.13 µM (≈ 5.81 µg/mL)
MIC Range ([6]; 24 clinical MRSA isolates): 0.20 to 3.13 µM
TI (IC50/MIC50) ([6]; in vitro therapeutic index, MRSA): 238
MIC50 ([6]; median MIC, 24 clinical MRSA isolates, read-out: MIC50): 0.78 µM (≈ 1.45 µg/mL)
MIC-fold improvement vs. vancomycin [7]: up to 45
MIC ([7]; C. difficile ATJ ribotype 014/20, plate drop assay): 0.78 µM (≈ 1.45 µg/mL)
MIC-fold improvement vs. vancomycin ([7]; listed as Vanc- 66): 45
MIC-fold improvement vs. vancomycin [8]: ≤ 58
MIC ([8]; C. difficile AIU ribotype 027, plate drop assay): 0.78 µM (≈ 1.45 µg/mL)
MIC-fold improvement vs. vancomycin ([8]; listed as Vanc- 66): 58
MIC (VE 148 (VanB)): 1.56 µM (≈ 2.9 µg/mL)
MIC (VE 149 (VanB)): 0.78 µM (≈ 1.45 µg/mL)
MIC (VE 150 (VanB)): 0.78 µM (≈ 1.45 µg/mL)
MIC (VE 152 (VanB)): 0.78 µM (≈ 1.45 µg/mL)
MIC (VE 157 (VanB)): 0.78 µM (≈ 1.45 µg/mL)
MIC (VE 82 (VanC1)): 0.78 µM (≈ 1.45 µg/mL)
MBC relative to MIC (MRSA): MBC equaling their MIC values
